Results taken from publication PMC11582573, “An evolutionarily conserved metabolite inhibits biofilm formation in Escherichia coli K-12” (Nature Communications, 2024).

Key:
IspG [1] = target: T1, IspG (Escherichia coli, UniProt P62620); assay: protein thermal shift assay; assay type: binding; settings: 200 µM HMBPP, 2 µM protein, 25 mM MOPS pH 7.5, 50 mM NaCl
T1 sequence (P62620 1-372): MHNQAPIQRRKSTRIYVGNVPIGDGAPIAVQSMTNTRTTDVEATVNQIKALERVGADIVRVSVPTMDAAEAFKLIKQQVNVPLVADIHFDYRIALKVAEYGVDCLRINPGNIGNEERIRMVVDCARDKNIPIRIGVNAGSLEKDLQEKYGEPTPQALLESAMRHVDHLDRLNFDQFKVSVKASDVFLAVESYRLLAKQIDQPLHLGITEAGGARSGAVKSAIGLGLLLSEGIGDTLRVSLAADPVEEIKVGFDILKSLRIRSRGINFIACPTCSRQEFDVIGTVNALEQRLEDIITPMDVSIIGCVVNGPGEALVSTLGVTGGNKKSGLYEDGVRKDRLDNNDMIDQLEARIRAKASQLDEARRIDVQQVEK

H-NS = target: T2, H-NS (Escherichia coli, UniProt P0ACF8); assay: microscale thermophoresis; settings: read-out: binding affinity
T2 construct: gene hns
T2 sequence (P0ACF8 2-137): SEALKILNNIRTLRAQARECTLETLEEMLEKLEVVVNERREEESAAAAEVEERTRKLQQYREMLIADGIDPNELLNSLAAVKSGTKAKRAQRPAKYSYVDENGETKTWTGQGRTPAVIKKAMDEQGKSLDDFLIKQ

IspG [2] = target: T1, IspG; assay: microscale thermophoresis; settings: read-out: binding affinity

| Kd (H-NS) | Kd (IspG [2]) | Compound | shift in the melting temperature (IspG [1]) |
| --- | --- | --- | --- |
| – | – | C/C(=C\COP(=O)(O)OP(=O)(O)O)CO [HMBPP] | MEcPP and HMBPP, two known IspG binding metabolites, effectively changed the melting temperature of IspG |
| 6.46 ± 2.17 µM | 29.4 ± 10 µM | C[C@@]1(CO)OP(=O)(O)OP(=O)(O)OC[C@H]1O [MEcPP] | – |
